Structures can show the parent of a compound that is named as a salt.
Columns and labels:
Type in all cases: biochemical
[1] = target: T1, AKT2 (Homo sapiens, UniProt P31751); assay: AKT Kinase Assay (IMAP fluorescent polarisation) vs AKT2; details: activated AKT2, FAM Crosstide substrate
T1 construct: purchased SignalChem
In short: (§1)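 IC50 values came from non-linear regression of % inhibition relative to vehicle, measured by IMAP fluorescence polarisation (485/528 nm) after a 1 h room-temperature reaction of FAM-Crosstide and ATP. Each activated isoform was first exposed to compound for 45 min across fourteen half-log doses.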

[2] = target: T2, AKT1 (Homo sapiens, UniProt P31749); assay: AKT Kinase Assay (IMAP fluorescent polarisation) vs AKT1; details: activated AKT1, FAM Crosstide substrate
T2 construct: purchased SignalChem
T2 sequence (P31749 whole entry): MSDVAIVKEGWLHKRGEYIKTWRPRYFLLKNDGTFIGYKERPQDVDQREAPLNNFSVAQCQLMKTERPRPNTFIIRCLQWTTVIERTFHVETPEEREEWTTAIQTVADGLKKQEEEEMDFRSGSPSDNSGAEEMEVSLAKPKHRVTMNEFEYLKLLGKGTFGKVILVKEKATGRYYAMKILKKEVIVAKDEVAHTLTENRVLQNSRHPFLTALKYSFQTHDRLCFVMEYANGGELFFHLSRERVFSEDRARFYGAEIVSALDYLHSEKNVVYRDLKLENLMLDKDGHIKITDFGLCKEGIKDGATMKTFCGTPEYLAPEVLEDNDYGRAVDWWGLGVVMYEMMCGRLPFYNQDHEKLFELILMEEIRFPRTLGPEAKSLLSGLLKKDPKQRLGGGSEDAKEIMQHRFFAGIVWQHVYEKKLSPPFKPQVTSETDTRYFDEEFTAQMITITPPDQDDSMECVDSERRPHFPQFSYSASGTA
In short: as §1

[3] = target: T3, AKT3 (Homo sapiens, UniProt Q9Y243); assay: AKT Kinase Assay (IMAP fluorescent polarisation) vs AKT3; details: activated AKT3, FAM Crosstide substrate
T3 construct: purchased SignalChem
T3 sequence (Q9Y243 whole entry): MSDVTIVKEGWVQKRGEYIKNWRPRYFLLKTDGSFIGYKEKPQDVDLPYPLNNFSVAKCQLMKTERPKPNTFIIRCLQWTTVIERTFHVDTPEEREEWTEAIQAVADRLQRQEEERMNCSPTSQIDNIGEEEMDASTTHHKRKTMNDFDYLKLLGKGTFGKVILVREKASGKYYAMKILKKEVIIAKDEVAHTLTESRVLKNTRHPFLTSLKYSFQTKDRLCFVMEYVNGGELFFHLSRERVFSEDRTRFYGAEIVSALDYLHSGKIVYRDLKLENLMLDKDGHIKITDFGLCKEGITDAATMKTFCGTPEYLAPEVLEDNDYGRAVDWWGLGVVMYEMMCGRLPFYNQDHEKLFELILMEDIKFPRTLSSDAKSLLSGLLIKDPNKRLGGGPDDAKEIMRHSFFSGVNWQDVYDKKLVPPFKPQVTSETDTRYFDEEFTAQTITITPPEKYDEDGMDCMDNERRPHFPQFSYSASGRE
In short: as §1

T1 sequence (P31751 whole entry): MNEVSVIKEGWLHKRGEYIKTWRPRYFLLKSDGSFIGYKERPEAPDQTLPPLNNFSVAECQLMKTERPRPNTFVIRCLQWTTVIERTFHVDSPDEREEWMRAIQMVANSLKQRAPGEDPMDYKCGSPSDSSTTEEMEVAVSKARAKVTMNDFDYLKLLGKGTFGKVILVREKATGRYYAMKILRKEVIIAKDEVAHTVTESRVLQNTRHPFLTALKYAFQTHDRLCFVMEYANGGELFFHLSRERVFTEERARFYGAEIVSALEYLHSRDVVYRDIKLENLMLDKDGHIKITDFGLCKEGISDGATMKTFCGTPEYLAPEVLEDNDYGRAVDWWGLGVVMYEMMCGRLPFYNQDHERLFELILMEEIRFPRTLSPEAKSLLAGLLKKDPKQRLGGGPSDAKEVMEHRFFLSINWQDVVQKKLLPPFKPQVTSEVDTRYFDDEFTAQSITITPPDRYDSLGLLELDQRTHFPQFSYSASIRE

| Structure (SMILES) | IC50 [1] | IC50 [2] | IC50 [3] |
| --- | --- | --- | --- |
| NC1(c2ccc(-c3c(-c4ccccc4)oc4c(-c5c[nH]nn5)cccc4c3=O)cc2)CCC1 [Example 106, 3-[4-(1-Amino-cyclobutyl)-phenyl]-2-phenyl-8-(1H-[1,2,3]triazol-4-yl)-chromen-4-one] | ≤ 1000 nM | ≤ 1000 nM | ≤ 1000 nM |
| NC1(c2ccc(-c3c(-c4ccccc4)oc4c(C(=O)O)cccc4c3=O)cc2)CCC1 [Example 107, 3-[4-(1-Amino-cyclobutyl)-phenyl]-4-oxo-2-phenyl-4H-chromene-8-carboxylic acid. trifluoro-acetic acid] | > 10000 nM | 1000 to 10000 nM | > 10000 nM |
| NC1(c2ccc(-c3c(-c4ccccc4)oc4c(CN5CC(F)C5)cccc4c3=O)cc2)CCC1 [Example 108, 3-[4-(1-Amino-cyclobutyl)-phenyl]-8-(3-fluoro-azetidin-1-ylmethyl)-2-phenyl-chromen-4-one] | ≤ 1000 nM | 1000 to 10000 nM | > 10000 nM |
| NC1(c2ccc(-c3c(-c4ccccc4)oc4c5c(ccc4c3=O)OCC(=O)N5)cc2)CCC1 [Example 109, 8-(4-(1-aminocyclobutyl)phenyl)-9-phenylchromeno[7,8-b][1.4]oxazine-2,7(1H,3H)-dione] | 1000 to 10000 nM | ≤ 1000 nM | 1000 to 10000 nM |
| N#CCOc1ccc2c(=O)c(-c3ccc(C4(N)CCC4)cc3)c(-c3ccccc3)oc2c1Br [Example 110, 2-(3-(4-(1-aminocyclobutyl)phenyl)-8-bromo-4-oxo-2-phenyl-4H-chromen-7-yloxy)acetonitrile] | 1000 to 10000 nM | ≤ 1000 nM | 1000 to 10000 nM |
| N#CCn1ncc2ccc3c(=O)c(-c4ccc(C5(N)CCC5)cc4)c(-c4ccccc4)oc3c21 [Example 111, 2-(7-(4-(1-aminocyclobutyl)phenyl)-6-oxo-8-phenylpyrano[3,2-g]indazol-1(6H)-v1)acetonitrile] | 1000 to 10000 nM | ≤ 1000 nM | 1000 to 10000 nM |
| CN1C(=O)COc2c1ccc1c(=O)c(-c3ccc(C4(N)CCC4)cc3)c(-c3ccccc3)oc21 [Example 112, 8-(4-(1-aminocyclobutyl)phenyl)-4-methyl-9-phenylchromeno[8,7-b][1,4]oxazine-3,7(2H,4H)-dione] | ≤ 1000 nM | ≤ 1000 nM | 1000 to 10000 nM |
| NC1(c2ccc(-c3c(-c4ccccc4)oc4c(-c5ccc(C6(N)CCC6)cc5)nccc4c3=O)cc2)CCC1 [Example 113, 3,8-bis(4-(1-aminocyclobutyl)phenyl)-2-phenyl-4H-pyrano[2,3-c]pyridin-4-one] | > 10000 nM | ≤ 1000 nM | > 10000 nM |
| NC1(c2ccc(-c3c(-c4ccccc4)oc4c(-n5ccnc5)nccc4c3=O)cc2)CCC1 [Example 114, 3-(4-(1-aminocyclobutyl)phenyl)-8-(1H-imidazol-1-yl)-2-phenyl-4H-pyrano[2,3-c]pyridin-4-one] | 1000 to 10000 nM | ≤ 1000 nM | > 10000 nM |
| Cc1nn(C)c(C)c1-c1nccc2c(=O)c(-c3ccc(C4(N)CCC4)cc3)c(-c3ccccc3)oc12 [Example 115, 3-(4-(1-aminocyclobutyl)phenyl)-2-phenyl-8-(1,3,5-trimethyl-1H-pyrazol-4-yl)-4H-pyrano[2,3-c]pyridin-4-one] | 1000 to 10000 nM | > 10000 nM | > 10000 nM |
| Cc1c(-c2nccc3c(=O)c(-c4ccc(C5(N)CCC5)cc4)c(-c4ccccc4)oc23)cnn1C [Example 116, 3-(4-(1-aminocyclobutyl)phenyl)-8-(1,5-dimethyl-1H-pyrazol-4-yl)-2-phenyl-4H-pyrano[2,3-c]pyridin-4-one] | 1000 to 10000 nM | ≤ 1000 nM | 1000 to 10000 nM |
| CC(C)Cn1cc(-c2nccc3c(=O)c(-c4ccc(C5(N)CCC5)cc4)c(-c4ccccc4)oc23)cn1 [Example 117, 3-(4-(1-aminocyclobutyl)phenyl)-8-(1-isobutyl-1H-pyrazol-4-0)-2-phenyl-4H-pyrano[2,3-c]pyridin-4-one] | ≤ 1000 nM | ≤ 1000 nM | 1000 to 10000 nM |
| COc1ccccc1-c1nccc2c(=O)c(-c3ccc(C4(N)CCC4)cc3)c(-c3ccccc3)oc12 [Example 118, 3-(4-(1-aminocyclobutyl)phenyl)-8-(2-methoxyphenyl)-2-phenyl-4H-pyrano[2,3-c]pyridin-4-one] | 1000 to 10000 nM | ≤ 1000 nM | 1000 to 10000 nM |
| CS(=O)(=O)c1ccccc1-c1nccc2c(=O)c(-c3ccc(C4(N)CCC4)cc3)c(-c3ccccc3)oc12 [Example 119, 3-(4-(1-aminocyclobutyl)phenyl)-8-(2-(methylsulfonyl)phenyl)-2-phenyl-4H-pyrano[2,3-c]pyridin-4-one] | 1000 to 10000 nM | 1000 to 10000 nM | > 10000 nM |
| Cc1nccc2c(=O)c(-c3ccc(C4(N)CCC4)cc3)c(-c3ccccc3)oc12 [Example 120, 3-(4-(1-aminocyclobutyl)phenyl)-8-methyl-2-phenyl-4H-pyrano[2,3c]pyridin-4-one] | 1000 to 10000 nM | 1000 to 10000 nM | > 10000 nM |
| NC1(c2ccc(-c3c(-c4ccccc4)oc4c(-c5cccc(F)c5C(=O)O)nccc4c3=O)cc2)CCC1 [Example 121, 2-(3-(4-(1-aminocyclobutyl)phenyl)-4-oxo-2-phenyl-4H-pyrano[2,3-c]pyridin-8-yl)-6-fluorobenzoic acid] | > 10000 nM | 1000 to 10000 nM | > 10000 nM |
| N#Cc1cccc(-c2nccc3c(=O)c(-c4ccc(C5(N)CCC5)cc4)c(-c4ccccc4)oc23)c1 [Example 122] | ≤ 1000 nM | ≤ 1000 nM | > 10000 nM |
| NC1(c2ccc(-c3c(-c4ccccc4)oc4c(-c5cccnc5)nccc4c3=O)cc2)CCC1 [Example 123, 3-(4-(1-aminocyclobutyl)phenyl)-2-phenyl-8-(pyridin-3-yl)-4H-pyrano[2,3-c]pyridin-4-one hydrochloride] | ≤ 1000 nM | ≤ 1000 nM | 1000 to 10000 nM |
| NC1(c2ccc(-c3c(-c4ccccc4)oc4c(-c5ccccc5)nccc4c3=O)cc2)CCC1 [Example 124, 3-(4-(1-aminocyclobutyl)phenyl)-2,8-diphenyl-4H-pyrano[2,3-c]pyridin-4-one] | 1000 to 10000 nM | ≤ 1000 nM | 1000 to 10000 nM |
| NC1(c2ccc(-c3c(-c4ccccc4)oc4c(OCCO)nccc4c3=O)cc2)CCC1 [Example 125, 3-(4-(1-aminocyclobutyl)phenyl)-8-(2-hydroxyethoxy)-2-phenyl-4H-pyrano[2,3-c]pyridin-4-one] | 1000 to 10000 nM | ≤ 1000 nM | > 10000 nM |
| NC1(c2ccc(-c3c(-c4ccccc4)oc4c(C5CC5)nccc4c3=O)cc2)CCC1 [Example 126, hydrochloride] | 1000 to 10000 nM | ≤ 1000 nM | > 10000 nM |
| N#Cc1nccc2c(=O)c(-c3ccc(C4(N)CCC4)cc3)c(-c3ccccc3)oc12 [Example 127, 3-(4-(1-aminocyclobutyl)phenyl)-4-oxo-2-phenyl-4H-pyrano[2,3-c]pyridine-8-carbonitrile] | 1000 to 10000 nM | ≤ 1000 nM | > 10000 nM |
| CCc1nccc2c(=O)c(-c3ccc(C4(N)CCC4)cc3)c(-c3ccccc3)oc12 [Example 128, 3-(4-(1-aminocyclobutyl)phenyl)-8-ethyl-2-phenyl-4H-pyrano[2,3-c]pyridin-4-one] | 1000 to 10000 nM | ≤ 1000 nM | > 10000 nM |

Source: patent US8546376B2, “Pharmaceutical compounds” (Almac Discovery Limited, priority 2009, dated 2013)
